Data published in patent US11523998B2, “Anti-inflammatory formulations and uses thereof including a combination of palmitoylethanolamide and plant-based polyphenols” (The Texas A&M University System, priority 2018, dated 2022).

How the values were obtained:
cyclooxygenase-2 (Cox-2) = assay: Cox-2 mRNA expression (RT-qPCR) in LPS-activated RAW 264.7 macrophages; type: cell-based, murine; conditions: LPS 10 ng/mL; for downregulation of Cox-2 mRNA expression, compound alone: 9 h
Protocol: Cells were maintained in an incubator at 37° C. with 5% CO2, and the medium was changed every two days. All assays were conducted in cells between the 3rd and the 15th passage. All treatments with PEA and other polyphenols were solubilized in dimethyl sulfoxide (DMSO) and further diluted in complete culture media immediately before use.
Cells were pre-treated with Palmitoylethanolamide (PEA) and other compounds of interest for 1 hour and then lipopolysaccharide (LPS), a major activating agent of macrophages, was added for a final concentration of 10 ng·mL-1. Cells were then incubated for 8 hours. Negative control (culture media only) and positive (LPS) controls, as well as a Vehicle (DMSO at a maximal concentration of 0.2%)+LPS were also performed. Total RNA was extracted and purified using an RNeasy mini kit (QIAGEN, Venlo, Netherlands) according to the manufacturer's protocol. mRNA quality and quantification were assessed with NanoDrop® ND-1000 (NanoDrop Technologies, Wilmington, Del., USA). cDNA synthesis was performed with the iScript Reverse Transcription Supermix (Bio-Rad Laboratories, Hercules, Calif., USA) according to the manufacturer's protocol. RT-qPCR reactions were performed using iTaq Universal Probes Supermix (Bio-Rad Laboratories, Hercules, Calif., USA). mRNA expression cyclooxygenase-2 (Cox-2) and interleukin-1 beta (II-1β) were analyzed using beta-actin (Actb) as a reference gene. The levels of transcripts were calculated relative to the control group by the 2-ΔΔCt method.
(§1) All data were analyzed by one-way analysis of variance (ANOVA) with Dunnet's or Sidak's posttest using GraphPad Prism 6.0 (GraphPad Software, La Jolla, Calif., USA).

[1] = test system: interleukin-1 beta (II-1β); assay: Il-1β mRNA expression (RT-qPCR) in LPS-activated RAW 264.7 macrophages; type: cell-based, murine; conditions: for reduction of IL-1β mRNA expression: 1.0 mg/L alone; for reduction of IL-1β mRNA expression, alone at same molarity: around 3.4 μM (1.0 mg/L quercetin, 0.974 mg/L luteolin)
Protocol: RAW 264.7 murine macrophage cell line was purchased from American Type Culture Collection (ATCC-TIB71). Cells were cultured in high glucose Dulbecco's Modified Eagle Medium (DMEM) supplemented with stable glutamine (0.0584%) and sodium pyruvate (0.011%), 10% (v/v) heat-inactivated fetal bovine serum, and 1% (v/v) penicillin/streptomycin mix. Cells were maintained in an incubator at 37° C. with 5% CO2, and the medium was changed every two days. All assays were conducted in cells between the 3rd and the 15th passage. All treatments with PEA and other polyphenols were solubilized in dimethyl sulfoxide (DMSO) and further diluted in complete culture media immediately before use. LPS (10 ng mL-1) was used to induce inflammation in RAW 264.7 cultures.
Murine RAW 264.7 macrophage cells (1×10^5 cells per well) were seeded in 12-well plates and incubated for 24 hours. Cells were pre-treated with Palmitoylethanolamide (PEA) and other compounds of interest for 1 hour and then lipopolysaccharide (LPS), a major activating agent of macrophages, was added for a final concentration of 10 ng·mL-1. Cells were then incubated for 8 hours. Negative control (culture media only) and positive (LPS) controls, as well as a Vehicle (DMSO at a maximal concentration of 0.2%)+LPS were also performed. Total RNA was extracted and purified using an RNeasy mini kit (QIAGEN, Venlo, Netherlands) according to the manufacturer's protocol. mRNA quality and quantification were assessed with NanoDrop® ND-1000 (NanoDrop Technologies, Wilmington, Del., USA). cDNA synthesis was performed with the iScript Reverse Transcription Supermix (Bio-Rad Laboratories, Hercules, Calif., USA) according to the manufacturer's protocol. RT-qPCR reactions were performed using iTaq Universal Probes Supermix (Bio-Rad Laboratories, Hercules, Calif., USA). mRNA expression cyclooxygenase-2 (Cox-2) and interleukin-1 beta (II-1β) were analyzed using beta-actin (Actb) as a reference gene. The levels of transcripts were calculated relative to the control group by the 2-ΔΔCt method.
as §1

SMILES: CCCCCCCCCCCCCCCC(=O)NCCO [PEA, N-(2-Hydroxyethyl)hexadecanamide]
- expression of Cox-2 (cyclooxygenase-2 (Cox-2); PEA 2.0 mg/L): significantly decrease
- reduction of II-1β expression ([1]; 0.5 mg/L alone, LPS 10 ng/mL): 28%
- expression of the inflammatory cytokine II-1β ([1]; PEA 2.0 mg/L, after 1.0-10 ng/mL LPS): significantly decrease
- lowest effective concentration of compound alone (II-1β expression) ([1]; LPS 10 ng/mL, 9 h): 0.5 mg/L

SMILES: COc1cc(CNC(=O)CCCC/C=C/C(C)C)ccc1O [capsaicin]
- expression of IL-1β, compound alone (screening) ([1]; alone, LPS 10 ng/mL, 9 h): significant reduction
- expression of IL-1β, in combination with PEA (screening) ([1]; in combination with PEA, LPS 10 ng/mL, 9 h): significant reduction

SMILES: COc1cc(/C=C/C(=O)CC(=O)/C=C/c2ccc(O)c(OC)c2)ccc1O [curcumin]
- reduction of IL-1β mRNA expression ([1]; LPS 10 ng/mL): ~57%
- lowest effective concentration of compound alone (II-1β expression) ([1]; LPS 10 ng/mL, 9 h): 1.0 mg/L

SMILES: CC(C)Cc1ccc(C(C)C(=O)O)cc1 (centres unmarked) [ibuprofen]
- inflammatory state of the cells (II-1β and Cox-2 expression, screening) ([1]; tested concentration, LPS 10 ng/mL, 9 h): did not improve the inflammatory state of the cells

SMILES: O=c1cc(-c2ccc(O)c(O)c2)oc2cc(O)cc(O)c12 [luteolin]
- reduction of IL-1β mRNA expression, alone at same molarity ([1]; alone, 9 h): 50%

SMILES: O=c1c(O)c(-c2ccc(O)c(O)c2)oc2cc(O)cc(O)c12 [quercetin]
- reduction of IL-1β mRNA expression ([1]; LPS 10 ng/mL): around 45%
- reduction of IL-1β mRNA expression, alone at same molarity ([1]; alone, 9 h): 78%
- lowest effective concentration of compound alone (II-1β expression) ([1]; LPS 10 ng/mL, 9 h): 1.0 mg/L

SMILES: Oc1ccc(C=Cc2cc(O)cc(O)c2)cc1 [resveratrol]
- downregulation of Cox-2 mRNA expression, compound alone (cyclooxygenase-2 (Cox-2)): did not reduce
- downregulation of Cox-2 mRNA expression, compound alone (cyclooxygenase-2 (Cox-2); listed as Resveratrol): no downregulation
- downregulation of II-1β mRNA expression, compound alone ([1]; alone, LPS 10 ng/mL, 9 h): did not reduce
- downregulation of II-1β mRNA expression, compound alone ([1]; alone, LPS 10 ng/mL, 9 h, listed as Resveratrol): no downregulation
